Assay results as given in article PMC7020476, “New Insights into the Type II Toxins from the Sea Anemone Heteractis crispa” (Toxins, 2020).
Entries after “also recorded” stand apart in the source; their conditions may differ. Read-outs that look alike come from different tables or passages of the source. Bridges are numbered along the chain shown (N, C = ends). Roman numbers before positions name the chains, in order. Where no end group is shown, it is not given here.

Columns and labels:
rNaV1.2 = target: T1, rNaV1.2 (Rattus norvegicus, UniProt P04775); experiment: Two-electrode voltage-clamp of NaV1.2 expressed in Xenopus laevis oocytes; type: cell-based; conditions: for EC50: read-out: half-maximal effective concentration (EC50), NaV1.2
T1 construct: expressed in transfected cells; host or cells: Xenopus laevis oocytes injected with cRNA
T1 sequence (P04775 whole entry): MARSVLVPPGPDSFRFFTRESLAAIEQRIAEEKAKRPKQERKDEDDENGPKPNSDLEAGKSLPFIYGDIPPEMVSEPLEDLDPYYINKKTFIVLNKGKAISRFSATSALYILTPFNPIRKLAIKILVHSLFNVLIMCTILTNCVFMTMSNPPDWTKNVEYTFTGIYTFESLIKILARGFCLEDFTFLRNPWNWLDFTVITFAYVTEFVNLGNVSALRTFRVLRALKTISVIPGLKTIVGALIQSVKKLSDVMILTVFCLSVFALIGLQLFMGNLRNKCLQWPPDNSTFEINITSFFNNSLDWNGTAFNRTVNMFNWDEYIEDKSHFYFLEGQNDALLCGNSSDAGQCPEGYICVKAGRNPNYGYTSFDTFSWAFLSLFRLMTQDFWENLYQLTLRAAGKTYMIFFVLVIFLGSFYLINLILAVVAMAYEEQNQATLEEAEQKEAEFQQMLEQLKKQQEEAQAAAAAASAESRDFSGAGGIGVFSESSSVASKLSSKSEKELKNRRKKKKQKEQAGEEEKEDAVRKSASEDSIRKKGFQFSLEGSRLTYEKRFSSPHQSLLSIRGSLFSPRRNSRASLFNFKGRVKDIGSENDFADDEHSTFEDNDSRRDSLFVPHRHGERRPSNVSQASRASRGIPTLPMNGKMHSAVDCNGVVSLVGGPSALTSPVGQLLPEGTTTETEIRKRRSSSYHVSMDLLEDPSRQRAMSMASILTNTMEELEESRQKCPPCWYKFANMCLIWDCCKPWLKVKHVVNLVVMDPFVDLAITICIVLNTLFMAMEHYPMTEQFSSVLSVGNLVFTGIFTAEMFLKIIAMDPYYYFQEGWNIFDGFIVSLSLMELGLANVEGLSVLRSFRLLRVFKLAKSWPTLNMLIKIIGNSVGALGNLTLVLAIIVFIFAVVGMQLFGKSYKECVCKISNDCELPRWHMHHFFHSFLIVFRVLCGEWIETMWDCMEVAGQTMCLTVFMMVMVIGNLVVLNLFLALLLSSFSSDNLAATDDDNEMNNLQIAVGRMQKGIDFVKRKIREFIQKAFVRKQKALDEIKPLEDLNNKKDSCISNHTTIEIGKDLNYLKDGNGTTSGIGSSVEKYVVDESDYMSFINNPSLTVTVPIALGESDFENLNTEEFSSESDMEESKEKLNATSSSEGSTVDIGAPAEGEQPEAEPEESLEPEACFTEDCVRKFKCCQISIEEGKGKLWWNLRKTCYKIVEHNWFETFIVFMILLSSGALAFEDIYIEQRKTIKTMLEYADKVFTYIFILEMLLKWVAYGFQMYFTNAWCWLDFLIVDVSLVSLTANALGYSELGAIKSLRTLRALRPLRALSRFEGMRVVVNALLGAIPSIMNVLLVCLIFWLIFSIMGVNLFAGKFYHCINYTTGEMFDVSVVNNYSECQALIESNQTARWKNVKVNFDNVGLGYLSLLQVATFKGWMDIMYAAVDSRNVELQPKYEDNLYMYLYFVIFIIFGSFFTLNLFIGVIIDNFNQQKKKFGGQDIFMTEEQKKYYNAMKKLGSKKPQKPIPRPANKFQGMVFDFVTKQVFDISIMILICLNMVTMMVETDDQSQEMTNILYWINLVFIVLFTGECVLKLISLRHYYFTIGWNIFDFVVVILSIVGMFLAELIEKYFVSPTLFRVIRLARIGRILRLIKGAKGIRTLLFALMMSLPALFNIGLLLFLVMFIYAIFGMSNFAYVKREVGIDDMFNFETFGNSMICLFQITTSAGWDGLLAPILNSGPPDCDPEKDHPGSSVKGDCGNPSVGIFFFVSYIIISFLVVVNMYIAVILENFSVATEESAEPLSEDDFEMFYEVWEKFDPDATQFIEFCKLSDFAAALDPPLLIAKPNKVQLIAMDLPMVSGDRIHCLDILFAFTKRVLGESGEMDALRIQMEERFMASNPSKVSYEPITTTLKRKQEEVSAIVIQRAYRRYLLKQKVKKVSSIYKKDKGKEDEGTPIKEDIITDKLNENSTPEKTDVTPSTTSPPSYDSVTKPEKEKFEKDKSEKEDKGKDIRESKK
From the text: (§1) For the expression of NaV channels (hNaV1.1, rNaV1.2, rNaV1.3, rNaV1.4, hNaV1.5, mNaV1.6, rNaV1.8, the invertebrate channels BgNaV1.1, VdNaV1, and the auxiliary subunits rβ1, hβ1, and TipE) in Xenopus oocytes, the linearized plasmids were transcribed using the T7 or SP6 mMessage-mMachine Transcription Kit (Thermo Fisher Scientific, Waltham, MA, USA). The harvesting of stage V–VI oocytes from anesthetized female X. laevis frogs was previously described with a protocol adjustment in which the frogs were anesthetized by placement in 0.1% tricaine (amino benzoic acid ethyl ester; Millipore Sigma, Burlington, MA, USA) solution. Oocytes were injected with 50 nL of cRNA at a concentration of 1 ng/nL using a microinjector (Drummond Scientific Company, Broomall, PA, USA). The oocytes were incubated in a solution containing (mM) the following: NaCl, 96; KCl, 2; CaCl2, 1.8; MgCl2, 2; and HEPES, 5 (pH 7.4). This solution was supplemented with 50 mg/L gentamicin sulfate.
(§2) Two-electrode voltage-clamp recordings were performed at room temperature (18–22 °C) using a GeneClamp 500 amplifier (Molecular Devices, San Jose, CA, USA) controlled by a pClamp data acquisition system (Axon Instruments, Union City, CA, USA). Whole-cell currents from oocytes were recorded 1–4 d after mRNA injection. Bath solution composition was (mM) as follows: NaCl, 96; KCl, 2; CaCl2, 1.8; MgCl2, 2; and HEPES, 5 (pH 7.4). Voltage and current electrodes were filled with 3 M KCl. The resistances of both electrodes were kept between 0.8 and 1.5 MΩ. The elicited currents were filtered at 1 kHz and sampled at 20 kHz by using a 4-pole low-pass Bessel filter. Leak subtraction was performed using a -P/4 protocol.
(§3) For the electrophysiological analysis of toxins, a number of protocols were applied from a holding potential of −90 mV with a start-to-start frequency of 0.2 Hz. Na^+ current traces were evoked by 100-ms depolarizations to Vmax (the voltage corresponding to maximal Na^+ current in control conditions). The current–voltage relationships were determined by 50-ms step depolarizations between −90 and 70 mV, using 5 mV increments. The Na^+ conductance (gNa) was calculated from the currents according to Ohm’s law: gNa = INa/(V − Vrev), where INa represents the Na^+ current peak amplitude at a given test potential V, and Vrev is the reversal potential. The values of gNa were plotted as a function of voltage and fitted using the Boltzmann function: gNa/gmax = [1 + (exp(Vg − V)/k)] −1, where gmax represents maximal gNa, Vg is the voltage corresponding to half-maximal conductance, and k is the slope factor. Toxin–induced effects on the steady–state inactivation were investigated by using a standard two-step protocol. In this protocol, 100 ms conditioning 5 mV step prepulses ranging from −90 to 70 mV were followed by a 50-ms test pulse to −30 or −10 mV. Data were normalized to the maximal Na^+ current amplitude, plotted against prepulse potential, and fitted by using the Boltzmann function: INa/Imax = {(1 − C)/(1 + exp[(V − Vh)/k)]} + C, where Imax is the maximal INa, Vh is the voltage corresponding to half-maximal inactivation, V is the test voltage, k is the slope factor, and C is a constant representing a non-inactivating persistent fraction (close to 0 in control). […] I30ms/Ipeak was measured at the same test voltage after addition of the toxin. […]

mice [1] = conditions: cited from earlier work
From the text: The only difference observed within our electrophysiological experiments that may underlie this phenomenon is a different activity of both toxins on NaV1.2 and NaV1.3 subtypes (Figure 5, Table 2). Even though tetrodotoxin (TTX)-sensitive brain-type sodium channel isoforms NaV1.1–NaV1.3 and NaV1.6 are the main channels e ...

BgNaV1 = BgNaV1 (Blattella germanica, UniProt O01306); experiment: Two-electrode voltage-clamp of BgNaV1 expressed in Xenopus laevis oocytes; type: cell-based, insect; conditions: for EC50: amplitude of toxin-induced effect at 30 ms (I30ms), Hill fit, Xenopus oocytes, means ± sem, n ≥ 5, read-out: half-maximal effective concentration (EC50), BgNaV1
From the text: as §1, §2
as §3, with “protocol.” for “protocol. In this protocol, 100 ms conditioning 5 mV step prepulses ranging from −90 to 70 mV were followed by a 50-ms test pulse to −30 or −10 mV. Data were normalized to the maximal Na^+ current amplitude, plotted against prepulse potential, and fitted by using the Boltzmann function: INa/Imax = {(1 − C)/(1 + exp[(V − Vh)/k)]} + C, where Imax is the maximal INa, Vh is the voltage corresponding to half-maximal inactivation, V is the test voltage, k is the slope factor, and C is a constant representing a non-inactivating persistent fraction (close to 0 in control).”

mice [2] = experiment: Toxicity in mice; type: in vivo, adult male CD-1 mice; conditions: intraperitoneal, six animals per sample, 24 hours
Procedure: The care and use of animals were performed in an agreement with the requirements of local and international legislation as well as of the Directive 2010/63/EU for animal experiments.
Adult male CD-1 mice weighing 20–22 g were kept at room temperature with a 12-h light/dark cycle and with ad libitum access to food and water. Each animal was used only once and was euthanized in the CO2 chamber immediately after completion of the experiment. Animal procedures were approved by the Animal Care and Use Committee of the PIBOC FEB RAS.
The peptides (0.15–300 μg) were dissolved in 100 μL of sterile saline (0.9% NaCl) and injected intraperitoneally. Six animals were used per sample. To assess peptide toxicity, the maximum non-toxic dose was determined as an amount (mg) of the tested peptide per kg of the mouse weight, at which there was no observed toxic or adverse effect within 24 hours.

mNaV1.6 = target: T2, mNaV1.6 (Mus musculus, UniProt Q9WTU3); experiment: Two-electrode voltage-clamp of NaV1.6 expressed in Xenopus laevis oocytes; type: cell-based; conditions: for EC50: amplitude of toxin-induced effect at 30 ms (I30ms), Hill fit, Xenopus oocytes, means ± sem, n ≥ 5, read-out: half-maximal effective concentration (EC50), NaV1.6
T2 construct: expressed in transfected cells; host or cells: Xenopus laevis oocytes injected with cRNA
T2 sequence (Q9WTU3 whole entry): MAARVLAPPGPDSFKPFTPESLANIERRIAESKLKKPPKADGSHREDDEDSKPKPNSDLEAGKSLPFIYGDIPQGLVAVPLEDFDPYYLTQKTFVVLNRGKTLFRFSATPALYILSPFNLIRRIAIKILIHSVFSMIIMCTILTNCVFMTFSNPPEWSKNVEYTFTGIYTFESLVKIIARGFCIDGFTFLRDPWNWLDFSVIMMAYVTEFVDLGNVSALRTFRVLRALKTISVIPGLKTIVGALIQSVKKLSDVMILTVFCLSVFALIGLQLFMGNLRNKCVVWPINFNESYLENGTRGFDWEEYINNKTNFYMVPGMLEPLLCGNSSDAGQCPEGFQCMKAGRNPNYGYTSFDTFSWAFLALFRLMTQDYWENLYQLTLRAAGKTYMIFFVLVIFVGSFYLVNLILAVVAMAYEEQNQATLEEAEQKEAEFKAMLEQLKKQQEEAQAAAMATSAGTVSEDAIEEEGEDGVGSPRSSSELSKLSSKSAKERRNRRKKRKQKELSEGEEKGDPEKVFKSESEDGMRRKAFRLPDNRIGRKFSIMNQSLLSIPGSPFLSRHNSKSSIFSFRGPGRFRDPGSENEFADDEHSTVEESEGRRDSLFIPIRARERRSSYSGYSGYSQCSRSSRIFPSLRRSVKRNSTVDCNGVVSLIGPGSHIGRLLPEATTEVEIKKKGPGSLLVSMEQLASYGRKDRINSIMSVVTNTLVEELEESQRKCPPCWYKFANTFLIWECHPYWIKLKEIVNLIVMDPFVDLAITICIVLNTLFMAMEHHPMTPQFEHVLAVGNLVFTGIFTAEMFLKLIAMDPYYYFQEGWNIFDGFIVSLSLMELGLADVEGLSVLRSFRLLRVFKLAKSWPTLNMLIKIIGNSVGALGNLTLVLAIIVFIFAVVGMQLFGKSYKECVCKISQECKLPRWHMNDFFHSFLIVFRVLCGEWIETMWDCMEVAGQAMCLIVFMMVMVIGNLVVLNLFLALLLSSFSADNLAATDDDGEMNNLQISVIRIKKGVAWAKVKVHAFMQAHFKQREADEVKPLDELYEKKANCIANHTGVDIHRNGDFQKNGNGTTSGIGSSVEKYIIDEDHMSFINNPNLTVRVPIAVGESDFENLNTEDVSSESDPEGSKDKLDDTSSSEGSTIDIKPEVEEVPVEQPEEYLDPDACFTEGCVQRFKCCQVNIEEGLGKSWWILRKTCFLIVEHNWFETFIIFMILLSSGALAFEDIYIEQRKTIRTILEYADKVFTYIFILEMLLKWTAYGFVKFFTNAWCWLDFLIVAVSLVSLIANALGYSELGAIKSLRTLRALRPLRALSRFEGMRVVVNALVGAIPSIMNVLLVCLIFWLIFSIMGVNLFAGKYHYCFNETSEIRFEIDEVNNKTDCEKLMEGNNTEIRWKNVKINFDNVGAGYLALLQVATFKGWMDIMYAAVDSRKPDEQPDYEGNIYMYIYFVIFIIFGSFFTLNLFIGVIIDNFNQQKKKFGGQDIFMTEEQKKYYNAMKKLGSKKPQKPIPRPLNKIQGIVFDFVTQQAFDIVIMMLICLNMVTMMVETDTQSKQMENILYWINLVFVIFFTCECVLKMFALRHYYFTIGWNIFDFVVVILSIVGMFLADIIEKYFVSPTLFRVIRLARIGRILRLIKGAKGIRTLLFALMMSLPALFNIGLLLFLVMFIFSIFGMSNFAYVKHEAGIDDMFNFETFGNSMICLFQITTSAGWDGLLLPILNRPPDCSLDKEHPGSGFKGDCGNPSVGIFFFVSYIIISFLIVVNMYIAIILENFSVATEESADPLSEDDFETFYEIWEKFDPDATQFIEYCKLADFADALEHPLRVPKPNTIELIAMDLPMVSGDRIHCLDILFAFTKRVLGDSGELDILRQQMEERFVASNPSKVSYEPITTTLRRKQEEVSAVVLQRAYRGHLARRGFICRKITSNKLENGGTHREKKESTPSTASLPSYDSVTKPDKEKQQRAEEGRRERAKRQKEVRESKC
From the text: as §1, §2
as §3, with “protocol.” for “protocol. In this protocol, 100 ms conditioning 5 mV step prepulses ranging from −90 to 70 mV were followed by a 50-ms test pulse to −30 or −10 mV. Data were normalized to the maximal Na^+ current amplitude, plotted against prepulse potential, and fitted by using the Boltzmann function: INa/Imax = {(1 − C)/(1 + exp[(V − Vh)/k)]} + C, where Imax is the maximal INa, Vh is the voltage corresponding to half-maximal inactivation, V is the test voltage, k is the slope factor, and C is a constant representing a non-inactivating persistent fraction (close to 0 in control).”

[3] = Secondary structure content by CD spectroscopy; type: physicochemical; conditions: water, 20 °C; for Unordered / α-Helices αD / α-Helices αR / α-Helices αtot: CONTIN; for α-Helices αD: distorted; for α-Helices αR: regular; for α-Helices αtot: sum
Procedure: CD spectra were measured in the range from 320 to 190 nm with a Chirascan-plus spectropolarimeter (Applied Photophysics, Leatherhead, UK). The instrument was calibrated with 10-camphorsulfonic acid ammonium salt, and a ratio of 2:1 was found between the positive CD band at 290 nm and the negative CD band at 192 nm. The measurements were carried out in bidistilled water at 20 °C using 0.1- and 1-cm path length cells in amide and aromatic regions, respectively. In the amide region (190–240 nm) of the CD spectrum, molar ellipticity [θ]λ (deg cm^2 dmol^−1) was calculated as [θ]λ = θobs × MRW/10 × C × L, where θobs is the observed ellipticity in degrees, MRW is the mean amino acid residue weight of 110 Da, L is the path length (cm), and C is the protein concentration (g/mL). In the aromatic region (240–320 nm) of the CD spectrum, results were expressed as molar ellipticity (the average molecular masses of RpII, RTX-III, and RTX-VI are 5378, 5287, and 5240 Da, respectively). The secondary structure contents were determined according to the method of Provencher and Glöckner, using their CONTIN program.

[4] = test system: NaV channels (NaV1.1–NaV1.6, NaV1.8, BgNaV1, VdNaV1); experiment: Electrophysiological screening on nine NaV subtypes (overall statements); type: cell-based; conditions: for modulation of NaV channels (in words): 10 μM toxin, Xenopus oocytes; for phyla selectivity (in words): mammalian vs. insect/arachnid, 10 μM
From the text: as §1, §2
as §3, with “protocol.” for “protocol. In this protocol, 100 ms conditioning 5 mV step prepulses ranging from −90 to 70 mV were followed by a 50-ms test pulse to −30 or −10 mV. Data were normalized to the maximal Na^+ current amplitude, plotted against prepulse potential, and fitted by using the Boltzmann function: INa/Imax = {(1 − C)/(1 + exp[(V − Vh)/k)]} + C, where Imax is the maximal INa, Vh is the voltage corresponding to half-maximal inactivation, V is the test voltage, k is the slope factor, and C is a constant representing a non-inactivating persistent fraction (close to 0 in control).”

rNaV1.3 = experiment: Two-electrode voltage-clamp of NaV1.3 expressed in Xenopus laevis oocytes; type: cell-based, rat; conditions: 10 μM toxin
From the text: as §1, with “Oocytes were injected with 50 nL of cRNA at a concentration of 1 ng/nL using a microinjector (Drummond Scientific Company, Broomall, PA, USA). The oocytes were incubated in a solution containing (mM) the following: NaCl, 96; KCl, 2; CaCl2, 1.8; MgCl2, 2; and HEPES, 5 (pH 7.4). This solution was supplemented with 50 mg/L gentamicin sulfate.” left out
Two-electrode voltage-clamp recordings were performed at room temperature (18–22 °C) using a GeneClamp 500 amplifier (Molecular Devices, San Jose, CA, USA) controlled by a pClamp data acquisition system (Axon Instruments, Union City, CA, USA). Whole-cell currents from oocytes were recorded 1–4 d after mRNA injection. […]
For the electrophysiological analysis of toxins, a number of protocols were applied from a holding potential of −90 mV with a start-to-start frequency of 0.2 Hz. […] The current–voltage relationships were determined by 50-ms step depolarizations between −90 and 70 mV, using 5 mV increments. […] I30ms/Ipeak was measured at the same test voltage after addition of the toxin. […]

[5] = amplitude of toxin-induced effect at 30 ms (I30ms), Hill fit, Xenopus oocytes, means ± sem, n ≥ 5

Substance | EC50 (rNaV1.2; [5]) [nM] | LD50 (mice [1]; ref [8]) [mg/kg] | EC50 (BgNaV1) [nM] | toxicity in mice (in words) (mice [2]; CD-1 mice) | EC50 (mNaV1.6) [nM] | half-maximal effective concentration (EC50), NaV1.2 (rNaV1.2; [5]) | α-helices (in words) [3] | Unordered [3] [percentage] | α-Helices αD [3] [percentage] | α-Helices αR [3] [percentage] | α-Helices αtot [3] [percentage] | LD50 (mice [1]; ref [10]) [mg/kg] | modulation of NaV channels (in words) [4] | phyla selectivity (in words) [4] | effect on NaV1.3 current (in words) (rNaV1.3) | effect on NaV1.2 current (in words) (rNaV1.2; Xenopus oocytes) | relative activity on NaV1.2 (in words) (rNaV1.2; compared to δ-SHTX-Hcr1f (Figure 6, Table 3)) | relative potency on BgNaV1 (in words) (BgNaV1; compared with RTX-III) | LD50 (mice [2]; mice) [mg/kg] | relative potency on NaV1.6 (in words) (mNaV1.6; compared with RTX-III)
ASCKCDDDGPDVRSATFTGTVDFWNCNEGWEKCTAVYTPVASCCRKKK-NH2 (disulfide 3-43, 5-33, 26-44) [δ-SHTX-Hcr1f] | 79.5 ± 4.3 | 4.2 | 226 ± 12.3 | consistent with the previously reported data for RpII | 183 ± 8.2 | – | – | – | – | – | – | – | – | – | – | – | – | – | – | –
H-GNCKCDDEGPYVRTAPLTGYVDLGYCNEGWEKCASYYSPIAECCRKKK-NH2 (disulfide 3-43, 5-33, 26-44) [RTX-III] | – | – | 978 ± 62.3 | – | 382 ± 5.8 | Not active | practically absent | 40.1 | 0.4 | 0.1 | 0.5 | 0.0025 | modulate insect, arachnid (BgNaV1, VdNaV1), and mammalian CNS NaV channels (NaV1.1–NaV1.3, NaV1.6) but not skeletal muscle (NaV1.4), cardiac (NaV1.5), or PNS (NaV1.8) channels; also recorded: did not affect currents of skeletal muscle NaV1.4, cardiac NaV1.5, and PNS NaV1.8 channels | not to be phyla-selective; also recorded: non-phyla-selective | exhibited substantial activating effects on NaV1.3; also recorded: acted similarly on NaV1.3 | – | – | – | – | –
I: TAPLTGYVDLGYCNEGWEKCASYYSPIAECCRKKK-NH2 / II: GNCKCDDEGPYV-OH (disulfide I:13-I:31, I:20-II:5, I:30-II:3) [RTX-VI] | 121 ± 19.3 | – | 761 ± 25.6 | – | 282 ± 7 | – | practically absent | 38.3 | 0.3 | 0.0 | 0.3 | – | modulate insect, arachnid (BgNaV1, VdNaV1), and mammalian CNS NaV channels (NaV1.1–NaV1.3, NaV1.6) but not skeletal muscle (NaV1.4), cardiac (NaV1.5), or PNS (NaV1.8) channels; also recorded: did not affect currents of skeletal muscle NaV1.4, cardiac NaV1.5, and PNS NaV1.8 channels | not to be phyla-selective; also recorded: non-phyla-selective | abolished its effect on the NaV1.3 current | modulated another subtype of the CNS channels, NaV1.2; also recorded: enhanced current through NaV1.2 | lower activity on the NaV1.2 subtype compared to δ-SHTX-Hcr1f | more potent inhibitor of both NaV1.6 and BgNaV1 channels than RTX-III | > 10 | more potent inhibitor of both NaV1.6 and BgNaV1 channels than RTX-III
